In publication PMC3422614 (Biochemistry, 2011):
Entries after “also recorded” stand apart in the source; their conditions may differ. Where two headings read alike, the source gives them in different places. Blank lines part the entries; values can stand above or below the molecule they belong to. Where no end group is shown, it is not given here.

How the values were obtained:
ERK2 [1] = target: T1, ERK2 (Rattus norvegicus, UniProt P63086); assay: Dose-response effect of docking ligands on ERK2 phosphorylation of Sub-D; assay type: biochemical
T1 sequence (P63086 whole entry): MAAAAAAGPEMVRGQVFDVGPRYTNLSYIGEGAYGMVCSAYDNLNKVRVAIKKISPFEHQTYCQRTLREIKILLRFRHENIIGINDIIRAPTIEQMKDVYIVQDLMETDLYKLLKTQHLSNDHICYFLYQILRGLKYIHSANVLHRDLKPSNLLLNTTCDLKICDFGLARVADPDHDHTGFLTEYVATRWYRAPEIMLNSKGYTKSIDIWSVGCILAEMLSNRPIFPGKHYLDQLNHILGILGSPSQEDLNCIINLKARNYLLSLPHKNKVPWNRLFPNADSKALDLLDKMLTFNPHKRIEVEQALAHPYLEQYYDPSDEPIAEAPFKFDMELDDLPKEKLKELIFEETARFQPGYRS

ERK2 [2] = target: T1, ERK2; assay: Dose-response effect of docking ligands on ERK2 phosphorylation of Sub-F; assay type: biochemical
ERK2 [3] = target: T1, ERK2; assay type: biochemical
ERK2 [4] = target: T1, ERK2; assay: Kinetics of Sub-F phosphorylation by ERK2 at saturating Lig-D; assay type: biochemical
ERK2 [5] = target: T1, ERK2; assay: Inhibition patterns for the phosphorylation of Sub-F by ERK2; assay type: biochemical
ERK2 [6] = target: T1, ERK2; assay: Inhibition patterns for the phosphorylation of Sub-D by ERK2; assay type: biochemical
ERK2 [7] = target: T1, ERK2; settings: protein substrate; cited from earlier work
ERK•Ets-1 complex = settings: cited from earlier work

- IC50 (ERK2 [1]): 30 ± 4 µM
- EC50 (ERK2 [2]): 10 ± 8 µM
Molecule: CC(=O)N[C@@H](Cc1ccccc1)C(=O)N[C@@H](CCC(N)=O)C(=O)N[C@@H](CCCNC(=N)N)C(=O)N[C@@H](CCCCN)C(=O)N[C@H](C(=O)N[C@@H](CC(C)C)C(=O)N[C@@H](CCC(N)=O)C(=O)N[C@@H](CCCNC(=N)N)C(=O)N[C@@H](CCCNC(=N)N)C(=O)N[C@@H](CC(N)=O)C(=O)N[C@@H](CC(C)C)C(=O)N[C@@H](CCCCN)C(=O)NCC(=O)N[C@@H](CC(C)C)C(=O)N[C@@H](CC(N)=O)C(=O)N[C@@H](CC(C)C)C(=O)N[C@@H](CC(N)=O)C(=O)N[C@@H](CC(C)C)C(N)=O)[C@@H](C)O [Lig-D]

- Ki (ERK2 [3]): 3.3 ± 1.1 µM
- Ki (ERK2 [4]): 5 ± 2 µM
Molecule: YAEPLTPRILAKWEWPA-NH2 [Sub-F]

- Mechanism of inhibition (ERK2 [5]; varied MgATP, fixed Sub-F): Noncompetitive
- Mechanism of inhibition (ERK2 [5]; varied Sub-F, fixed MgATP): Competitive
- IC50 (ERK2 [2]): 35 ± 3 µM
- Effect on Sub-F phosphorylation (kobs) (ERK2 [2]; Fig. 5B, Sub-F 15 μM, 1 mM MgATP, increasing ligand): competitively inhibits Sub-F
Molecule: Ac-YAPRAPAKLAFQFPSR-NH2 [Lig-F]
- Effect on Sub-D phosphorylation (kobs) (ERK2 [1]; Fig. 5A, Sub-D 3 μM, 1 mM MgATP, increasing ligand): no effect on kobs for the phosphorylation of Sub-D; also recorded: no effect on the ability of ERK2 to phosphorylate Sub-D

- Mechanism of inhibition (ERK2 [5]; varied MgATP, fixed Sub-F): competitive pattern for towards MgATP^2-
- Mechanism of inhibition (ERK2 [5]; varied Sub-F, fixed MgATP): Noncompetitive
- Mechanism of inhibition (ERK2 [6]; varied MgATP, fixed Sub-D): competitive pattern for towards MgATP^2-
- Mechanism of inhibition (ERK2 [6]; varied Sub-D, fixed MgATP): Noncompetitive
Molecule: Nc1ncnc2c1ncn2[C@@H]1O[C@H](COP(=O)([O-])OP(=O)([O-])O)[C@@H](O)[C@H]1O.[Mg+2] [MgADP]

B1: Ets: murine (His6-tagged)Ets1(1-138), protein substrate of ERK2 (protein, UniProt P27577 1-138, looked up, fragment)
chain: MKAAVDLKPTLTIIKTEKVDLELFPSPDMECADVPLLTPSSKEMMSQALKATFSGFTKEQQRLGIPKDPRQWTETHVRDWVMWAVNEFSLKGVDFQKFCMSGAALCALGKECFLELAPDFVGDILWEHLEILQKEDVK
modifications: His6 tag
- kcat (ERK2 [3]; Table 1, fit to eqn. 2, 27 °C, pH 7.4, 2 nM ERK2): 17 ± 1 S^−1
- Kinetic mechanism of phosphorylation (ERK2 [7]): random-order mechanism
- kcat/Km (ERK2 [7]): 6e+06 M⁻¹ s⁻¹
- stabilization of the ERK•Ets-1 complex by Ets-1 N-terminus docking to the DRS (ERK•Ets-1 complex): approximately 10 fold
